ChEMBL document CHEMBL5052843, “Inhibitors of apol1 and methods of using same” (2020)

Assays:
Apolipoprotein L1 = Apolipoprotein L1 (Homo sapiens, UniProt O14791); assay: Inhibition of APOL1 G1 variant in human HEK293-T-REx cells measured by Thallium assay; format: cell-based
[1] = test system: Trypanosoma brucei brucei; assay: Antitrypanosomal activity against Trypanosoma brucei brucei assessed as trypanosome lysis using recombinant APOL1 protein G1 variant and measured by Alamar blue based fluorescene assay; format: functional, organism-based

Row | SMILES | IC50 (Apolipoprotein L1) [nM] | IC50 [1] [nM]
1 | O=C(CCc1c(-c2ccc(F)cc2)[nH]c2c(F)cc(F)cc12)N[C@H]1C[C@@H](CO)NC1=O | > 1000 | > 1000
2 | CC1(NC(=O)CCc2c(-c3ccc(F)cc3)[nH]c3c(F)cc(F)cc23)CCNC1=O (stereo not given) | 250 | < 250
3 | O=C(CCc1c(-c2ccc(F)cc2)[nH]c2ccc(OCc3ccccc3)cc12)N[C@H]1CCNC1=O | 250 | 250
4 | O=C(CCc1c(-c2ccc(F)c(F)c2)[nH]c2c(F)cc(F)cc12)N[C@@H]1C(=O)NC[C@H]1O | < 250 | < 250
5 | O=C(CCc1c(-c2ccc(F)cc2)[nH]c2c(F)cccc12)N[C@@H]1C(=O)NC[C@H]1O | < 250 | < 250
6 | N#Cc1cc(F)c2[nH]c(-c3ccc(F)cc3)c(CCC(=O)N[C@H]3CCNC3=O)c2c1 | > 1000 | > 1000
7 | O=C(CCc1c(-c2ccccc2)[nH]c2c(F)cccc12)N[C@@H]1C(=O)NC[C@H]1O | < 250 | < 250
8 | Cc1ccc(-c2[nH]c3ccccc3c2CCC(=O)N[C@@H]2C(=O)NC[C@H]2O)cc1F | < 250 | < 250
9 | O=C(CCc1c(-c2ccc(F)cc2)[nH]c2ccc(F)cc12)N[C@H]1CCNC1=O | < 250 | < 250
10 | N#Cc1ccc(-c2[nH]c3ccccc3c2CCC(=O)N[C@@H]2C(=O)NC[C@H]2O)cc1 | < 250 | < 250
11 | O=C(CCc1c(-c2ccc(F)cc2)[nH]c2ccc(F)cc12)N[C@@H]1C(=O)NC[C@H]1O | < 250 | < 250
12 | O=C(CCc1c(-c2ccc(F)cc2)[nH]c2c(F)cc(F)cc12)N[C@H]1C[C@H](CO)NC1=O | > 1000 | > 1000
13 | Cc1c(F)c(F)cc2c(CCC(=O)N[C@@H]3C(=O)NC[C@H]3O)c(-c3ccc(F)cc3)[nH]c12 | < 250 | < 250
14 | O=C(CCc1c(-c2ccccc2)[nH]c2c(F)cc(F)cc12)N[C@@H]1C(=O)NC[C@H]1O | < 250 | < 250
15 | CN(C(=O)CCc1c(-c2ccc(F)cc2)[nH]c2ccc(F)cc12)C1CCNC1=O (stereo not given) | 250 | 250
16 | O=C(CCc1c(-c2ccccc2)[nH]c2ccc(Cl)cc12)N[C@@H]1C(=O)NC[C@H]1O | < 250 | < 250
17 | O=C(CCc1c(-c2ccc(OC(F)F)cc2)[nH]c2c(F)cc(F)cc12)N[C@@H]1C(=O)NC[C@H]1O | < 250 | < 250
18 | COc1cc(F)cc2c(CCC(=O)N[C@@H]3C(=O)NC[C@H]3O)c(-c3ccc(F)cc3)[nH]c12 | < 250 | < 250
19 | O=C(CCc1c(-c2ccccc2)[nH]c2cc(F)c(F)cc12)N[C@@H]1C(=O)NC[C@H]1O | < 250 | < 250
20 | O=C(CCc1c(-c2ccccc2)[nH]c2c(Br)cccc12)N[C@@H]1C(=O)NC[C@H]1O | < 250 | < 250
21 | O=C(CCc1c(-c2ccc(F)cc2)[nH]c2c(F)cccc12)N[C@H]1CCNC1=O | < 250 | < 250
22 | O=C(CCc1c(-c2ccc(C(F)(F)F)cc2)[nH]c2ccccc12)N[C@@H]1C(=O)NC[C@H]1O | < 250 | < 250
23 | COc1ccc(-c2[nH]c3ccccc3c2CCC(=O)N[C@@H]2C(=O)NC[C@H]2O)cc1 | < 250 | < 250
24 | O=C(CCc1c(-c2ccc(F)cc2)[nH]c2c(Cl)cc(F)cc12)N[C@@H]1C(=O)NC[C@H]1O | < 250 | < 250

Row | SMILES | IC50 (Apolipoprotein L1) [nM] | IC50 [1] [nM]
25 | O=C(CCc1c(-c2ccc(C(F)F)cc2)[nH]c2ccccc12)N[C@@H]1C(=O)NC[C@H]1O | < 250 | < 250
26 | Cc1ccc(-c2[nH]c3ccccc3c2CCC(=O)N[C@@H]2C(=O)NC[C@H]2O)cc1 | < 250 | < 250
27 | O=C(CCc1c(-c2ccccc2)[nH]c2c(F)c(F)c(F)cc12)N[C@@H]1C(=O)NC[C@H]1O | < 250 | < 250
28 | O=C(CCc1c(-c2ccc(F)cc2)[nH]c2c(Cl)cccc12)N[C@H]1CCNC1=O | < 250 | < 250
29 | Cc1cc(F)cc2c(CCC(=O)N[C@@H]3C(=O)NC[C@H]3O)c(-c3ccc(F)cc3)[nH]c12 | < 250 | < 250
30 | O=C(CCc1c(-c2ccc(Cl)cc2)[nH]c2ccccc12)N[C@@H]1C(=O)NC[C@H]1O | < 250 | < 250
31 | O=C(CCc1c(-c2ccc(F)cc2)[nH]c2c(F)cc(Cl)cc12)N[C@@H]1C(=O)NC[C@H]1O | < 250 | < 250
32 | O=C(CCc1c(-c2ccc(F)cc2)[nH]c2c(F)cc(F)cc12)N[C@@H]1CCNC1=O | 250 | < 250
33 | O=C(CCc1c(-c2cccc(F)c2)[nH]c2c(F)cc(F)cc12)N[C@@H]1C(=O)NC[C@H]1O | < 250 | < 250
34 | O=C(CCc1c(-c2ccccc2)[nH]c2ccc(F)cc12)N[C@@H]1C(=O)NC[C@H]1O | < 250 | < 250
35 | O=C(CCc1c(-c2ccccc2)[nH]c2cc(F)cc(F)c12)N[C@@H]1C(=O)NC[C@H]1O | < 250 | < 250
36 | N#Cc1ccc(-c2[nH]c3c(F)cc(F)cc3c2CCC(=O)N[C@H]2CCNC2=O)cc1 | < 250 | < 250
37 | O=C(CCc1c(-c2ccc(F)cc2)[nH]c2c(F)cc(F)cc12)N[C@@H]1C(=O)NC[C@H]1O [INAXAPLIN] | < 250 | < 250
38 | O=C1C[C@H](NC(=O)CCc2c(-c3ccc(F)cc3)[nH]c3c(F)cc(F)cc23)C(=O)N1 | 250 | 250
39 | O=C(CCc1c(-c2ccc(F)c(F)c2)[nH]c2ccccc12)N[C@@H]1C(=O)NC[C@H]1O | < 250 | < 250
40 | O=C(CCc1c(-c2ccc(F)cc2)[nH]c2ccc(F)cc12)NC1CCNC1=O (stereo not given) | < 250 | < 250
41 | O=C(CCc1c(-c2ccc(Cl)c(F)c2)[nH]c2ccccc12)N[C@@H]1C(=O)NC[C@H]1O | < 250 | < 250
42 | O=C(CCc1c(-c2ccc(F)cc2)[nH]c2c(F)c(F)ccc12)N[C@@H]1C(=O)NC[C@H]1O | < 250 | < 250
43 | Cc1c(F)c(F)cc2c(CCC(=O)N[C@@H]3C(=O)NC[C@H]3O)c(-c3ccccc3)[nH]c12 | < 250 | < 250
44 | O=C(CCc1c(-c2ccc(F)cc2)[nH]c2c(F)cc(F)cc12)N[C@@H]1C(=O)NC[C@@H]1O | < 250 | < 250
45 | O=C(CCc1c(-c2ccc(F)cc2)[nH]c2ccccc12)N[C@@H]1C(=O)NC[C@H]1O | < 250 | < 250
46 | Cc1ccc2[nH]c(-c3ccc(Br)cc3)c(CCC(=O)N[C@H]3CCNC3=O)c2c1 | < 250 | < 250
47 | O=C(CCc1c(-c2ccccc2)[nH]c2cccc(F)c12)N[C@@H]1C(=O)NC[C@H]1O | < 250 | 250
48 | O=C(CCc1c(-c2ccc(F)cc2)[nH]c2ccc(F)cc12)N[C@@H]1CCNC1=O | 250 | 250

Row | SMILES | IC50 (Apolipoprotein L1) [nM] | IC50 [1] [nM]
49 | O=C(CCc1c(-c2ccccc2)[nH]c2ccc(F)cc12)N[C@H]1CCNC1=O | < 250 | < 250
50 | Cc1cc(-c2[nH]c3ccccc3c2CCC(=O)N[C@@H]2C(=O)NC[C@H]2O)ccc1F | < 250 | < 250
51 | O=C(CCc1c(-c2ccc(F)cc2)[nH]c2c(F)ccc(F)c12)N[C@H]1CCNC1=O | > 1000 | > 1000
52 | O=C(CCc1c(-c2ccc(F)cc2)[nH]c2c(F)cc(F)cc12)N[C@H]1CCNC1=O | < 250 | < 250
53 | CC1C[C@H](NC(=O)CCc2c(-c3ccc(F)cc3)[nH]c3c(F)cc(F)cc23)C(=O)N1 (stereo not given in full) | 250 | 250
54 | O=C(CCc1c(-c2cc(F)cc(F)c2)[nH]c2c(F)cc(F)cc12)N[C@@H]1C(=O)NC[C@H]1O | < 250 | 250
55 | O=C(CCc1c(-c2cc(F)cc(F)c2)[nH]c2ccccc12)N[C@@H]1C(=O)NC[C@H]1O | 250 | 250
56 | [2H]C(C(=O)N[C@@H]1C(=O)NC[C@H]1O)C([2H])c1c(-c2ccc(F)cc2)[nH]c2c(F)cc(F)cc12 (stereo not given in full) | < 250 | < 250
57 | O=C(CCc1c(-c2ccc(F)cc2)[nH]c2c(F)cc(Br)cc12)N[C@H]1CCNC1=O | < 250 | < 250
58 | Cc1cc(F)c2[nH]c(-c3ccc(F)cc3)c(CCC(=O)N[C@@H]3C(=O)NC[C@H]3O)c2c1 | < 250 | < 250
59 | O=C(CCc1c(-c2ccc(F)cc2)[nH]c2ccc(C(F)(F)F)cc12)N[C@@H]1C(=O)NC[C@H]1O | < 250 | < 250
60 | O=C(CCc1c(-c2ccccc2)[nH]c2c(F)c(F)ccc12)N[C@@H]1C(=O)NC[C@H]1O | < 250 | < 250
61 | O=C(CCc1c(-c2ccc(F)cc2)[nH]c2c(OC(F)F)cc(F)cc12)N[C@@H]1C(=O)NC[C@H]1O | < 250 | 250
62 | O=C(CCc1c(-c2ccc(F)cc2)[nH]c2c(F)cc(C(F)(F)F)cc12)N[C@@H]1C(=O)NC[C@H]1O | < 250 | < 250
63 | Cc1ccc(-c2[nH]c3ccccc3c2CCC(=O)N[C@@H]2C(=O)NC[C@H]2O)c(F)c1 | < 250 | < 250
64 | O=C(CCc1c(-c2ccccc2)[nH]c2c(C(F)(F)F)cccc12)N[C@@H]1C(=O)NC[C@H]1O | 250 | > 1000
65 | O=C(CCc1c(-c2ccc(OC(F)(F)F)cc2)[nH]c2ccccc12)N[C@@H]1C(=O)NC[C@H]1O | < 250 | < 250
66 | O=C(CCc1c(-c2ccccc2)[nH]c2cc(F)ccc12)N[C@@H]1C(=O)NC[C@H]1O | < 250 | < 250
67 | O=C(CCc1c(-c2ccc(F)cc2)[nH]c2ccc(O)cc12)N[C@H]1CCNC1=O | > 1000 | > 1000
68 | [2H]C([2H])(C(=O)N[C@@H]1C(=O)NC[C@H]1O)C([2H])([2H])c1c(-c2ccc(F)cc2)[nH]c2c(F)cc(F)cc12 | < 250 | < 250
69 | O=C1NC[C@@H](O)[C@@H]1NC(=O)C(F)(F)Cc1c(-c2ccc(F)cc2)[nH]c2c(F)cc(F)cc12 | < 250 | < 250
70 | O=C(CCc1c(-c2ccccc2)[nH]c2ccccc12)N[C@@H]1C(=O)NC[C@H]1O | < 250 | < 250
